According to ChEMBL document CHEMBL1153871, “Antiplasmodial and antitrypanosomal activities of aminobicyclo[2.2.2]octyl omega-aminoalkanoates” (Eur J Med Chem, 2009):

Tests used:
L6 = experiment: Cytotoxicity against rat L6 cells; type: cell-based
Plasmodium falciparum = experiment: Antimalarial activity against chloroquine and pyrimethamine-resistant Plasmodium falciparum K1; type: functional, organism-based
[1] = tested on: Trypanosoma brucei rhodesiense; experiment: Antitrypanosomal activity against Trypanosoma brucei rhodesiense STIB900 by microplate assay; type: functional, organism-based
[2] = Selectivity index, ratio of IC50 for rat L6 cells to IC50 for Trypanosoma brucei rhodesiense STIB900; type: toxicity, cell-based; details: read-out: Ratio IC50

| SMILES | IC50 (L6; l6) | IC50 (Plasmodium falciparum) | IC50 [1] | IC50 (L6; Rattus norvegicus, L6) | IC50 (Plasmodium falciparum; Plasmodium falciparum, K1) | IC50 ([1]; Trypanosoma brucei, STIB900) | selectivity ratio [2] |
| --- | --- | --- | --- | --- | --- | --- | --- |
| O=C(CN1CCCC1)OC1CC2(N3CCCCC3)CC(c3ccccc3)C1C(c1ccccc1)C2 (racemic) | 52000 nM | 740 nM | 880 nM |  |  |  |  |
| CCN(CC)CC(=O)OC1CC2(N3CCCCC3)CC(c3ccccc3)C1C(c1ccccc1)C2 (racemic) | 61300 nM | 770 nM | 1530 nM |  |  |  |  |
| O=C(CN1CCCCC1)OC1CC2(N3CCCCC3)CC(c3ccccc3)C1C(c1ccccc1)C2 (racemic) | > 185000 nM | 1410 nM | 5420 nM |  |  |  |  |
| CN(C)C12CC(OC(=O)CCN3CCC(O)CC3)C(C(c3ccccc3)C1)C(c1ccccc1)C2 (racemic) |  |  |  | 89200 nM | 2250 nM | 950 nM |  |
| O=C(CCN1CCCC1)OC1CC2(N3CCCC3)CC(c3ccccc3)C1C(c1ccccc1)C2 (racemic) |  |  |  | 21900 nM | 370 nM | 120 nM |  |
| O=C(CCN1CCC(O)CC1)OC1CC2(N3CCCC3)CC(c3ccccc3)C1C(c1ccccc1)C2 (racemic) |  |  |  | 35600 nM | 1910 nM | 1430 nM |  |
| O=C(CCN1CCC(O)CC1)OC1CC2(N3CCCCC3)CC(c3ccccc3)C1C(c1ccccc1)C2 (racemic) |  |  |  | 28500 nM | 170 nM | 980 nM |  |
| CCN(CC)CCC(=O)OC1CC2(N(C)C)CC(c3ccccc3)C1C(c1ccccc1)C2 (racemic) |  |  |  | 23600 nM | 430 nM | 110 nM |  |
| CCN(CC)CCC(=O)OC1CC2(N3CCCCC3)CC(c3ccccc3)C1C(c1ccccc1)C2 (racemic) |  |  |  | 22900 nM | 190 nM | 150 nM |  |
| O=C(CN1CCC(O)CC1)OC1CC2(N3CCCCC3)CC(c3ccccc3)C1C(c1ccccc1)C2 (racemic) |  |  |  | > 179000 nM |  | 3810 nM |  |
| CN(C)C12CC(OC(=O)CN3CCC(O)CC3)C(C(c3ccccc3)C1)C(c1ccccc1)C2 (racemic) |  |  |  | 102000 nM | 2160 nM | 2060 nM |  |
| O=C(CCN1CCCCC1)OC1CC2(N3CCCC3)CC(c3ccccc3)C1C(c1ccccc1)C2 (racemic) |  |  |  | 17800 nM | 280 nM | 310 nM |  |
| CN(C)C12CC(OC(=O)CCN3CCCCC3)C(C(c3ccccc3)C1)C(c1ccccc1)C2 (racemic) |  |  |  | 25800 nM | 400 nM | 210 nM |  |
| CCN(CC)CCC(=O)OC1CC2(N3CCCC3)CC(c3ccccc3)C1C(c1ccccc1)C2 (racemic) |  |  |  | 19200 nM | 300 nM | 110 nM |  |
| O=C(CCN1CCCC1)OC1CC2(N3CCCCC3)CC(c3ccccc3)C1C(c1ccccc1)C2 (racemic) |  |  |  | 12500 nM | 250 nM | 380 nM |  |
| CN(C)C12CC(OC(=O)CCN3CCCC3)C(C(c3ccccc3)C1)C(c1ccccc1)C2 (racemic) |  |  |  | 26000 nM | 550 nM | 76 nM | 341 |
| O=C(CCN1CCCCC1)OC1CC2(N3CCCCC3)CC(c3ccccc3)C1C(c1ccccc1)C2 (racemic) |  |  |  | 54600 nM | 260 nM | 910 nM |  |
| O=C(CN1CCC(O)CC1)OC1CC2(N3CCCC3)CC(c3ccccc3)C1C(c1ccccc1)C2 (racemic) |  |  |  | 93400 nM | 860 nM | 1050 nM |  |
| Nc1nc(N)nc(Nc2ccc([As]3SCC(CO)S3)cc2)n1 (stereo not given) [MELARSOPROL] |  |  |  |  |  | 5 nM |  |
